According to ChEMBL document CHEMBL3879912, “4-alkoxy/aralkoxy-5-substituted-pyrrolopyrimidine compounds as TAK1 inhibitors in disease treatment” (2014):

Target: TAK1/TAB1 (Homo sapiens, UniProt O43318)
Experiment: Inhibition of kinase tracer-236 binding to full length recombinant human His-tagged TAK1-TAB1 expressed in baculovirus by FRET assay

TAK1/TAB1, sequence (Q15750 whole entry): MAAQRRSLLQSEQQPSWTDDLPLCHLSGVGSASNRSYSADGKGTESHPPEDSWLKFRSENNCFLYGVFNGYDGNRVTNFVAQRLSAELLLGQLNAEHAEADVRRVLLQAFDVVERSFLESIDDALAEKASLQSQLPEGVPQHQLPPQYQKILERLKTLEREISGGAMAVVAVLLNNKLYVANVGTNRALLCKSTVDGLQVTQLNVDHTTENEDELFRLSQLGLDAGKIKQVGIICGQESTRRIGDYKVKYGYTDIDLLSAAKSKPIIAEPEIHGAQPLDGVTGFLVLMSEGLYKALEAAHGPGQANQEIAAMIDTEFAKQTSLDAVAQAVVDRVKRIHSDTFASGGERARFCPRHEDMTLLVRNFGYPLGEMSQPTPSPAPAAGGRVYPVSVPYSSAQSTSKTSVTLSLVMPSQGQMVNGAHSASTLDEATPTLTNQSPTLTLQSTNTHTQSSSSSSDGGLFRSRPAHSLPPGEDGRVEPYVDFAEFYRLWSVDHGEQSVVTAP
TAK1/TAB1, sequence (O43318 whole entry): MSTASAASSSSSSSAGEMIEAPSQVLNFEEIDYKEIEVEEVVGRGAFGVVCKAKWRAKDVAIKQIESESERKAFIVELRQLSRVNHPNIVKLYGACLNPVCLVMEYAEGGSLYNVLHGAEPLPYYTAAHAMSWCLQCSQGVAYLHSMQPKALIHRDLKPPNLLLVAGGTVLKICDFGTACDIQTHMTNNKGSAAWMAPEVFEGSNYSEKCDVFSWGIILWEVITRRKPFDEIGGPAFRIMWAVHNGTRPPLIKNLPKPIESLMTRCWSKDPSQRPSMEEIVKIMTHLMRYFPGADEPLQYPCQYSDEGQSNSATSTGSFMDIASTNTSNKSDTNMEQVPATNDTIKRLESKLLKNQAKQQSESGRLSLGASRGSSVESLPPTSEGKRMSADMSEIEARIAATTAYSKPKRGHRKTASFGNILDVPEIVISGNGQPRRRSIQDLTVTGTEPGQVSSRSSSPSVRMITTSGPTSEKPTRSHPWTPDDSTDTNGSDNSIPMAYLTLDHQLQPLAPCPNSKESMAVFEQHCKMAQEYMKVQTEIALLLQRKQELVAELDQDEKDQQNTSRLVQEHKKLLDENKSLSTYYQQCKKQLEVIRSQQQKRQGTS

**Q.** For `N#C/C=C/c1c[nH]c2ncnc(OCc3ccccc3)c12`, which IC50 is on record?
**A.** The IC50 was 330 nM.

**Q.** For `COC(=O)/C(C)=C/c1c[nH]c2ncnc(OCC(C)C)c12`, which IC50 is on record?
**A.** The IC50 was 430 nM.

**Q.** With `NC(=O)/C=C/c1c[nH]c2ncnc(OCc3cccc(F)c3)c12` as the molecule, how does the IC50 read?
**A.** Its IC50 is 51 nM.

**Q.** `CC(=O)c1c[nH]c2ncnc(OCC(C)C)c12` was tested. Which IC50 did it give?
**A.** The IC50 was 1700 nM.

**Q.** Which IC50 does the source give for `CC(C)COc1ncnc2[nH]cc(C#CC(N)=O)c12` here?
**A.** The IC50 was 7 nM.
